This note sets out measurements from patent publication US11167007B2, “FOXM1 modulators and uses thereof” (City of Hope, priority 2016, dated 2021).

Assay [1] concerns AR activity in muscle or SV. Kind of assay: Weights of levator ani muscle and seminal vesicles at end of study. To be noted: rats, compared to controls. In kind it is in vivo, rat. The procedure: Animals and Drugs. This study was carried out in strict accordance with the recommendations in the Guide for the Care and Use of Laboratory Animals of the National Institutes of Health. All experiments were performed under the IUCAC approval of City of Hope. Animals were purchased from Jackson Laboratory (Bar Harbor, Main). For the pilot pharmacokinetic experiment, nine male Sprague Dawley rats (n=3) were administered 1, 10, or 100 mg/kg intraperitoneal injections thrice per week for four weeks. One hour following the final dose, blood and spinal fluid were collected and analyzed by mass spectrometry. For the efficacy experiment, rats were divided into 3 groups (n=7) as follows: intact, castrated, and thiostrepton. […] Following a treatment period of 7 days, rats were euthanized and organs harvested, weighed and processed for quantitative RT-PCR.
Androgens are known to control the growth and maintenance of the skeletal muscle and seminal vesicles. […] In order to investigate the impact of thiostrepton on these tissues, their weights at the end of the study were assessed. […] Because an equivalent androgen-dependent change in weight cannot be tested in motor neurons, the levels of tissue-selective androgen regulate genes, as a marker of AR activity, were assessed. […] RNA was isolated from spinal cord and LA muscle tissue and transcript levels were measured by RT-qPCR (FIG. 5F, FIG. 5H). […]

The next assay deals with AR. As to the kind of experiment: Western blot of AR levels in GT1-7 CARY cells. In kind it is cell-based, murine. An excerpt:
Western Blot. Cell lysates was separated on a 6% SDS page gel and transferred to a nitrocellulose membrane. The membrane was blocked for one hour in 5% skim milk dissolved in TBS-T and probed with the following antibodies ([…]): FoxM1 (rabbit, GeneTex), AR: 441 (mouse, Santa Cruz Biotechnology), β-catenin (rabbit 9562, Cell Signaling Technology), p84 (mouse, GeneTex) and actin (mouse, Santa Cruz Biotechnology). Horse radish peroxidase linked secondary antibodies were used along with ECL reagents for visualization. Western blots were quantified using Quantity One analysis software (BioRad).
It has been previously reported that thiostrepton causes decreased levels of FOXM1. Hegde et al, Nat Chem, 3(9):725-31 (2011); Gartel, Front Oncol, 3:150 (2013). […] The nuclear association between FOXM1 and β-catenin increases the transcriptional activity of both factors. Zhang et al, Cancer Cell, 20(4):427-42 (2011). β-catenin is a key AR coactivator in a variety of cells. Yang, J Biol Chem, 277(13):11336-44 (2002); Truica et al, Cancer Res, 60(17):4709-13 (2000). The inventors believed that thiostrepton could inhibit AR activity by limiting access to nuclear β-catenin via FOXM1 depletion. […] As expected, control actin protein was observed primarily in cytoplasmic fraction.
(In western blotting, separated proteins are transferred to a membrane and probed.)

Assay [2] addresses T1, AR with a 24 glutamine tract (normal) (Homo sapiens, UniProt P10275, DUP80-80).
T1 construct: expressed in transfected cells; host or cells: HEK293
As to the kind of experiment: Luciferase reporter assay in HEK293 cells transfected with ARQ24. In kind it is cell-based. To be noted: HEK293, AR 24 glutamines, FIG. 2C. An excerpt: Luciferase Reporter Assay. Cells were transfected using Lipofectamine Plus (Invitrogen) with a normalization plasmid (pRL-SV40, Promega) and an androgen responsive plasmid (MMTV-luciferase or PSA-luciferase) as described in Jones et al, ACS Chem Biol, 3(7):412-8 (2008), and, where indicated, with an shRNA plasmid targeting FOXM1 (adapted for mouse FOXM1 sequence targeting) a scrambled control shRNA plasmid, or ARQ24 or ARQ65 plasmids. Christensen et al, PLoS One, 8(1):e54556 (2013). The following day, cells and drugs were distributed to 96-well plates. 24 hours later, luciferase activity was assessed by a dual luciferase assay kit (Promega) on the Tecan plate reader. Samples were run in quadruplicates and a Student's t test was performed to determine significance, where p<0.05 was considered significant.
SBMA is caused by the activity of polyglutamine-expanded AR, and experiments were conducted to investigate the effects of thiostrepton against polyglutamine-expanded AR. AR-negative HEK293 cells were transfected with plasmids encoding AR with a 24 glutamine tract (normal) or with a 65 glutamine tract (disease associated). The polyglutamine-expanded AR was less transcriptionally active than the normal AR, as has been previously documented for such constructs. Kazemi-Esfarjani et al, Hum Mol Genet, 4:523-527 (1995).
(A reporter such as luciferase makes a cellular process visible.)

T1 sequence (P10275 with tags, fused parts or gaps DUP80-80): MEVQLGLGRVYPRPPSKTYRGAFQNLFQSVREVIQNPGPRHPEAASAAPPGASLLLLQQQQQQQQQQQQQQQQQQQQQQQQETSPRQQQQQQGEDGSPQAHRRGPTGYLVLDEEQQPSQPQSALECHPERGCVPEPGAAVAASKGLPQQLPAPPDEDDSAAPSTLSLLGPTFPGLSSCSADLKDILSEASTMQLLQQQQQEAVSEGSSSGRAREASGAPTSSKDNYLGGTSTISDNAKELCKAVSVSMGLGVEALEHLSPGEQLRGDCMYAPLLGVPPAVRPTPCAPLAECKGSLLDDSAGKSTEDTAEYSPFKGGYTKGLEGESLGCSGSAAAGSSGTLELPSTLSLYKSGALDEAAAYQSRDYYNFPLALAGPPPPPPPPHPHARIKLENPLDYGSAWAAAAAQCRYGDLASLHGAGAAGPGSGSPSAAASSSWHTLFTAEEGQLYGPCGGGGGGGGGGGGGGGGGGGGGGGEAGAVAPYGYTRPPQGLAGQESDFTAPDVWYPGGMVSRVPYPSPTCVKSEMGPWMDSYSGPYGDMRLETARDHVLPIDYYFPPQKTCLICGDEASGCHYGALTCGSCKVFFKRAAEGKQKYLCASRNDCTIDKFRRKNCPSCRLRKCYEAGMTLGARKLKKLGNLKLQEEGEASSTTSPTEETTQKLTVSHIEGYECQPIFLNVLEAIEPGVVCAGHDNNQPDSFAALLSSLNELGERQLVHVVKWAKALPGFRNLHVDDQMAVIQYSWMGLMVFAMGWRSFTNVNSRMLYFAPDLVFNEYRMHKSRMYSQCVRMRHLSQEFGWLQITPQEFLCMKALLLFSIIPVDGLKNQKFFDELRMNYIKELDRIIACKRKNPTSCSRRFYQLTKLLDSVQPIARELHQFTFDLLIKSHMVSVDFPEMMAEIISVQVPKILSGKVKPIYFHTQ

Turning to `C=C(NC(=O)C(=C)NC(=O)c1csc(C2=N[C@@H]3c4csc(n4)[C@H]4NC(=O)c5csc(n5)[C@H]([C@](C)(O)[C@@H](C)O)NC(=O)[C@H]5CSC(=N5)/C(=C/C)NC(=O)[C@H]([C@@H](C)O)NC(=O)c5csc(n5)[C@]3(CC2)NC(=O)[C@H](C)NC(=O)C(=C)NC(=O)[C@H](C)NC(=O)[C@H]([C@@H](C)CC)N[C@@H]2C=Cc3c([C@H](C)O)cc(nc3[C@H]2O)C(=O)O[C@@H]4C)n1)C(N)=O` [thiostrepton], in assay [1], the “levator ani (LA) muscle weight” value is “did not change” and the “seminal vesicles (SV) weight” value was “did not change”. In addition, the “AR levels (Western blot)” value in the assay with AR was “not consistently decreased”. Further, the “inhibition of non-expanded AR activity (luciferase)” value in assay [2] is recorded as “inhibited”.
